The text below walks through data of patent publication US20240262804A1, “NITROGEN-CONTAINING HETEROCYCLIC KETONES, PREPARATION METHODS AND MEDICINAL USES THEREOF” (Hansoh Bio LLC, priority 2021, published 2024).

pIC50: −log10 of the molar value.

bovine cardiac myosin, sequence (Q9BE39 whole entry): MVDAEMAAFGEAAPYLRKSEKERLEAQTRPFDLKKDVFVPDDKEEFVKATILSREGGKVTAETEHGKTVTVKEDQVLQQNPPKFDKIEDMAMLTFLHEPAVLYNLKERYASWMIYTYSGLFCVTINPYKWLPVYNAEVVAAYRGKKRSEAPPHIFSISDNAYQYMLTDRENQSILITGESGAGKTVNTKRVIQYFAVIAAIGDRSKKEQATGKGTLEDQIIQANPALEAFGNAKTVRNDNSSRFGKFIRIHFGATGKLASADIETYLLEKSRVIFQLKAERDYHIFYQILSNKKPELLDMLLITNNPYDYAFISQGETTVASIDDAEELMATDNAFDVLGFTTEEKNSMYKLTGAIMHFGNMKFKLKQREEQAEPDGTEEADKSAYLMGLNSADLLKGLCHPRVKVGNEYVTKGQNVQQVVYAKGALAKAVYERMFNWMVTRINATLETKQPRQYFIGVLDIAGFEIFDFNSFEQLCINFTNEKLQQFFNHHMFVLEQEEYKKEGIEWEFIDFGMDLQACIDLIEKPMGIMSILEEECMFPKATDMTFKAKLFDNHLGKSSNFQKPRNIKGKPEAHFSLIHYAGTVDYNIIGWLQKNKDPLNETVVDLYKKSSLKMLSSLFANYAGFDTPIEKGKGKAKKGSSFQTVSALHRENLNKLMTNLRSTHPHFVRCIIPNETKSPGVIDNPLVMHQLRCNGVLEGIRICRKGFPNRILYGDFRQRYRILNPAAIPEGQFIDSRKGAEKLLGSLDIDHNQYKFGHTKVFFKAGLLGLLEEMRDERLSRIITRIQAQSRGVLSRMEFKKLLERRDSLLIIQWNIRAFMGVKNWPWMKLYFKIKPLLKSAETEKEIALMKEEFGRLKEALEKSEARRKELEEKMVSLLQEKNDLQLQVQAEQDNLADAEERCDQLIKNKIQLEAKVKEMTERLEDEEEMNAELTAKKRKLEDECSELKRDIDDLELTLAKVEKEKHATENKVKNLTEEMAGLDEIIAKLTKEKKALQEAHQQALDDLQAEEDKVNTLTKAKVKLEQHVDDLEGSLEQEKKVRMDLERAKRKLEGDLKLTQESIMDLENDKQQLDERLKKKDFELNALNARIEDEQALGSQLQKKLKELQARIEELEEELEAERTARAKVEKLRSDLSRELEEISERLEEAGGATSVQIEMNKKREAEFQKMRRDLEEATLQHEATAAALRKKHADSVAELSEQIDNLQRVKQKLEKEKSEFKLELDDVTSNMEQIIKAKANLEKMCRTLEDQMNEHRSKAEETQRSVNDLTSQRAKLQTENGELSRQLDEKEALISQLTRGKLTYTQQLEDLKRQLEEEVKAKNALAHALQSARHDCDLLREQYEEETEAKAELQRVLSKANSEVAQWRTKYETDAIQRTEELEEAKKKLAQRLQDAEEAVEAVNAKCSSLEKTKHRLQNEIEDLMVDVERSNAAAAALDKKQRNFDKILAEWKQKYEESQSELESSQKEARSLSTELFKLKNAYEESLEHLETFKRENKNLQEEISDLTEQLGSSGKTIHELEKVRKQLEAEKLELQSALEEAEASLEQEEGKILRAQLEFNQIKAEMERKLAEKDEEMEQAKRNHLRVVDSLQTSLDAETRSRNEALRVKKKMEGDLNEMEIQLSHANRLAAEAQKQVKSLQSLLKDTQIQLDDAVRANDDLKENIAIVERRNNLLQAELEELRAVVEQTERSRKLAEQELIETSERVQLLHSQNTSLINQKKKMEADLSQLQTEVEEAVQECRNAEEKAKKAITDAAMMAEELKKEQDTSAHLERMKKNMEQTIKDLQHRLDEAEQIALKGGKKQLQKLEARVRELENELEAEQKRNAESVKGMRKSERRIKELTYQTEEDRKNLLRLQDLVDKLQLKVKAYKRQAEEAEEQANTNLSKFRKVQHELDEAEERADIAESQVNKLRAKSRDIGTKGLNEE
bovine cardiac myosin, sequence (P85100 whole entry partner): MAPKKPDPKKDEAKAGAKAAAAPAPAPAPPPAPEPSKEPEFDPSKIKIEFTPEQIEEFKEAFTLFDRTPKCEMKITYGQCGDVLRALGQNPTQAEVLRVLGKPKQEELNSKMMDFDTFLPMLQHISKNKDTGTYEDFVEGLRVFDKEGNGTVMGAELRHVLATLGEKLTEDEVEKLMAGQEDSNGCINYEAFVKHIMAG
bovine cardiac myosin, sequence (Q3SZE5 whole entry partner): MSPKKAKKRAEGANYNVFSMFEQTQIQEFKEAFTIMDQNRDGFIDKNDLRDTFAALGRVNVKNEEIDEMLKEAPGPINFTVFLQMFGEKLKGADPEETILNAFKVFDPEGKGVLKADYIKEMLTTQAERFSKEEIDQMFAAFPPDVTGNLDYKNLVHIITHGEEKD

The target in the assay is bovine cardiac myosin (Bos taurus (Bovine), UniProt Q9BE39). In words: Myosin inhibitory potency: PK/LDH-coupled ATPase assay on bovine skinned cardiac myofibrils. The assay is classed as biochemical. To be noted: pCa=6.25, 50 μM ATP, 25° C., read-out: myosin inhibition activity IC50. The protocol:
The average rates of ATPase inhibition, and the IC50 values are determined by Victor Nivo multimode plate reader (PerkinElmer, USA).
As to the assays background, a biochemical assay couples the ATPase activity of bovine cardiac myosin to an enzymatic coupling system consisting of pyruvate kinase and lactate dehydrogenase (PK/LDH) and monitoring the absorbance decrease of NADH (at 340 nm) as a function of time to measure the inhibitory ability of small molecule agents. In the assay, PK converts ADP (Adenosine diphosphate) to ATP (adenosine triphosphate) by converting PEP (phosphoenolpyruvate) to pyruvate. Pyruvate is then converted to lactate by LDH by converting NADH (nicotinamide adenine dinucleotide) to NAD (oxidized nicotinamide adenine dinucleotide).
In our experiments, bovine skinned cardiac myofibrils were isolated from the frozen bovine left ventricle as myosin's source in the ATPase assay. The calcium concentration that achieves a 50% (pCa50 or pCa=6.25) activation of the myofibril system was chosen as the final condition for assessing the activation activity according to the literature (DOI: 10.1074/jbc.M117.776815). Myofibrils ATPase activity was measured in a buffered solution containing 12 mM PIPES (piperazine-N, N′-bis(2-ethane sulfonic acid) and 2 mM magnesium chloride at pH 6.8 (PM12 buffer). Final assay conditions were 1 mg/mL of bovine cardiac myofibrils, 1:20 of stock PK/LDH (Sigma-Aldrich, Cat No. P0294-5X5ML), 50 μM ATP, 1 mM DTT (dithiothreitol), 0.75 mM NADH, 1.5 mM PEP at pCa50 (pCa=6.25). Compounds were dissolved in DMSO (dimethyl sulfoxide). Serial dilution of compounds was created such that the final desired concentration of compound would be achieved in a volume of 150 μL with a fixed DMSO concentration of 2% (v/v). 75 μL of a solution containing bovine cardiac myofibrils, PK/LDH, and calcium were added to a 96 well plate for a 7 point dose-response. In some circumstances, 10 point-response was used to repeat the ATPase assays on compounds of interest. Compounds were added to the myofibrils solution and incubated for 5 minutes. The enzymatic reaction was started with the addition of 75 μL of a solution containing ATP, PEP, NADH, compounds, and calcium. The ATPase activity was measured by reading absorbance at 340 nm in a PerkinElmer Victor Nivo plate reader at 25° C. in kinetic mode for 15 minutes using clear bottom plates. The slopes of the absorbance changes as a function of time for the first 10 minutes were normalized to slopes on the control wells containing all reagents, including DMSO, but without compounds. This normalized rate was then plotted as a function of small molecule concentration in GraphPad prism 9. The data were fitted to a four-parameter fit, and IC50 was calculated using Graphpad Prism 9.
Take `C[C@H](Nc1nc(=O)n(C2CCOCC2)c(=O)[nH]1)c1ccc(Cl)c(F)c1` [Example 166]: the pIC50 (as a rule, the negative decadic logarithm of the IC50, by convention in mol/L) is 5.27.

For the compound `C[C@H](Nc1nc(=O)n(C2CCOCC2)c(=O)[nH]1)c1ccc(C#N)cc1` [Example 169], the pIC50 was 5.84.

In the case of `C[C@H](Nc1nc(=O)n(C2CCOCC2)c(=O)[nH]1)c1cccc(F)c1F` [Example 170], the pIC50 was 5.82.

For the compound `COc1cc([C@H](C)Nc2nc(=O)n(C3CCOCC3)c(=O)[nH]2)ccc1F` [Example 171], the pIC50 was 6.04.

Turning to `C[C@H](Nc1nc(=O)n([C@H](C)C(F)(F)F)c(=O)[nH]1)c1ccc(OC(F)(F)F)cc1` [Example 174], the pIC50 was 5.55.

Turning to `C[C@H](Nc1nc(=O)n([C@@H](C)C(F)(F)F)c(=O)[nH]1)c1ccc(OC(F)(F)F)cc1` [Example 175], the pIC50 was 5.56.

Turning to `C[C@H](Nc1nc(=O)n(CC(F)(F)F)c(=O)[nH]1)c1ccc(OC(F)(F)F)cc1` [Example 176], the pIC50 was 5.10.

For `CC(C)n1c(=O)nc(N[C@@H](C)c2ccc(OC(F)(F)F)cc2)[nH]c1=O` [Example 177], the pIC50 is 5.76.

`C[C@H](Nc1nc(=O)n([C@H](C)C(F)(F)F)c(=O)[nH]1)c1cccc(F)c1` [Example 178]: the pIC50 was 5.48.

Take `C[C@H](Nc1nc(=O)n([C@@H](C)C(F)(F)F)c(=O)[nH]1)c1cccc(F)c1` [Example 179]: the pIC50 was 5.44.

Regarding `CC(C)n1c(=O)nc(N[C@@H](C)c2cccc(F)c2)[nH]c1=O` [Example 181], the pIC50 was 5.62.

With `CCc1ccc([C@H](C)Nc2nc(=O)n(C3CCOCC3)c(=O)[nH]2)cc1` [Example 186], the pIC50 is 6.13.

`Cc1cccc(C(C)Nc2nc(=O)n(C3CCNCC3)c(=O)[nH]2)c1` (stereo not shown) [Example 187]: the negative logarithm of the IC50 (pIC50) is 5.48.

Consider `CC(Nc1nc(=O)n(C2CCNCC2)c(=O)[nH]1)c1ccc(F)cc1` (stereo not shown) [Example 188], for which the pIC50 is 5.36.

Consider `Cc1ccccc1C(C)Nc1nc(=O)n(C2CCNCC2)c(=O)[nH]1` (stereo not shown) [Example 189], for which the pIC50 is 5.17.

Consider `CC(Nc1nc(=O)n(C2CCNCC2)c(=O)[nH]1)c1ccccc1F` (stereo not shown) [Example 190], for which the negative logarithm of the IC50 (pIC50) was 5.33.

As to `CC(Nc1nc(=O)n(C2CCNCC2)c(=O)[nH]1)c1cccc(F)c1` (stereo not shown) [Example 191], the pIC50 was 5.12.

Regarding `CC(Nc1nc(=O)n(C2CCNCC2)c(=O)[nH]1)c1cccc(C(F)(F)F)c1` (stereo not shown) [Example 192], the pIC50 is 5.24.

Consider `CC(Nc1nc(=O)n(C2CCNCC2)c(=O)[nH]1)c1ccc(C(F)(F)F)cc1` (stereo not shown) [Example 193], for which the negative-log IC50 (pIC50) was 5.29.

For `Cc1ccc(C(C)Nc2nc(=O)n(C3CCNCC3)c(=O)[nH]2)cc1` (stereo not shown) [Example 194], the pIC50 was 5.35.

For `C[C@H](Nc1nc(=O)n(C2CCOCC2)c(=O)[nH]1)c1cc(C(F)(F)F)cc(C(F)(F)F)c1` [Example 196], the pIC50 is 5.57.

With `Cc1c(-c2cccc([C@H](C)Nc3nc(=O)n(C4CCOCC4)c(=O)[nH]3)c2)cnn1C` [Example 197], the pIC50 is 5.69.

Turning to `Cc1noc(C)c1-c1cccc([C@H](C)Nc2nc(=O)n(C3CCOCC3)c(=O)[nH]2)c1` [Example 198], the pIC50 was 5.92.

For the compound `C[C@H](Nc1nc(=O)n(C2CCOCC2)c(=O)[nH]1)c1cccc(-n2cccn2)c1` [Example 199], the pIC50 was 5.68.

`C[C@H](Nc1nc(=O)n(C2CCOCC2)c(=O)[nH]1)c1cccc(-n2ccnc2)c1` [Example 200]: the pIC50 is 5.75.

`C[C@H](Nc1nc(=O)n(C2CCOCC2)c(=O)[nH]1)c1cccc(-n2cncn2)c1` [Example 201]: the pIC50 is 5.31.

In the case of `C[C@H](Nc1nc(=O)n(C2CCOCC2)c(=O)[nH]1)c1cccc(OC(F)(F)F)c1` [Example 202], the pIC50 is 6.31.

Take `Cc1nccn1-c1cccc([C@H](C)Nc2nc(=O)n(C3CCOCC3)c(=O)[nH]2)c1` [Example 203]: the pIC50 is 5.68.

Regarding `Cc1cnn(-c2cccc([C@H](C)Nc3nc(=O)n(C4CCOCC4)c(=O)[nH]3)c2)c1` [Example 204], the pIC50 is 5.27.

On to `Cc1cn(-c2cccc([C@H](C)Nc3nc(=O)n(C4CCOCC4)c(=O)[nH]3)c2)cn1` [Example 205], for which the pIC50 was 5.42.

`C[C@H](Nc1nc(=O)n(C2CCOCC2)c(=O)[nH]1)c1cccc(N2CCOCC2)c1` [Example 206]: the pIC50 is 5.42.

As for `C[C@H](Nc1nc(=O)n(C2CCOCC2)c(=O)[nH]1)c1cccc(C2CCOCC2)c1` [Example 207], the negative-log IC50 (pIC50) is 5.88.

In the case of `C[C@H](Nc1nc(=O)n(C2CCOCC2)c(=O)[nH]1)c1cccc(C2=CCOCC2)c1` [Example 208], the pIC50 is 5.80.

In the case of `C[C@H](Nc1nc(=O)n(C2CCOCC2)c(=O)[nH]1)c1cccc(C2CCNCC2)c1` [Example 209], the pIC50 was 5.71.

For `C[C@H](Nc1nc(=O)n(C2CCOCC2)c(=O)[nH]1)c1cccc(C2=CCN(C(=O)OC(C)(C)C)CC2)c1` [Example 210], the pIC50 was 5.48.

For `C[C@H](Nc1nc(=O)n(C2CCOCC2)c(=O)[nH]1)c1cccc(C2CCN(C(=O)OC(C)(C)C)CC2)c1` [Example 211], the pIC50 was 5.88.

`C[C@H](Nc1nc(=O)n(C2CCOCC2)c(=O)[nH]1)c1cccc(N2CCN(C)CC2)c1` [Example 212]: the pIC50 is 4.75.

Take `CC(=O)N1CCN(c2cccc([C@H](C)Nc3nc(=O)n(C4CCOCC4)c(=O)[nH]3)c2)CC1` [Example 213]: the pIC50 was 5.11.

With `C[C@H](Nc1nc(=O)n(C2CCOCC2)c(=O)[nH]1)c1cccc(N2CC(C)(C)C2)c1` [Example 214], the pIC50 was 5.47.

Consider `C[C@H](Nc1nc(=O)n(C2CCOCC2)c(=O)[nH]1)c1cccc(C2CCCCC2)c1` [Example 215], for which the pIC50 is 6.06.

Turning to `C[C@H](Nc1nc(=O)n(C2CCOCC2)c(=O)[nH]1)c1cccc(N2CCCCC2)c1` [Example 216], the pIC50 was 5.89.

On to `CC(Nc1nc(=O)n(C2CCOCC2)c(=O)[nH]1)c1cccc(-n2cccn2)c1` (stereo not shown) [Example 217], for which the negative logarithm of the IC50 (pIC50) is 5.44.

Consider `Cc1nccn1-c1cccc(C(C)Nc2nc(=O)n(C3CCOCC3)c(=O)[nH]2)c1` (stereo not shown) [Example 219], for which the pIC50 is 5.47.

Consider `C[C@H](Nc1nc(=O)n(C2CCOCC2)c(=O)[nH]1)c1cccc(-c2ccccc2)c1` [Example 220], for which the pIC50 is 5.88.

Consider `C[C@H](Nc1nc(=O)n(C2CCOCC2)c(=O)[nH]1)c1cccc(-c2ccncc2)c1` [Example 221], for which the pIC50 was 5.60.

Turning to `C[C@H](Nc1nc(=O)n(C2CCOCC2)c(=O)[nH]1)c1cccc(-c2cccnc2)c1` [Example 222], the pIC50 was 5.69.

On to `C[C@H](Nc1nc(=O)n(C2CCOCC2)c(=O)[nH]1)c1cccc(-c2cncnc2)c1` [Example 223], for which the pIC50 is 6.05.

For the compound `C[C@H](Nc1nc(=O)n(C2CCOCC2)c(=O)[nH]1)c1cccc(-c2ccccc2F)c1` [Example 224], the pIC50 is 6.15.

In the case of `Cc1ccccc1-c1cccc([C@H](C)Nc2nc(=O)n(C3CCOCC3)c(=O)[nH]2)c1` [Example 225], the negative-log IC50 (pIC50) was 6.09.

Consider `C[C@H](Nc1nc(=O)n(C2CCOCC2)c(=O)[nH]1)c1cccc(-c2ccc(F)cc2)c1` [Example 226], for which the pIC50 is 5.76.

On to `C[C@H](Nc1nc(=O)n(C2CCOCC2)c(=O)[nH]1)c1cccc(-c2cc[nH]n2)c1` [Example 227], for which the pIC50 is 5.78.

Take `C[C@H](Nc1nc(=O)n(C2CCOCC2)c(=O)[nH]1)c1cccc(-c2cn[nH]c2)c1` [Example 228]: the negative-log IC50 (pIC50) was 5.38.

Regarding `C[C@H](Nc1nc(=O)n(C2CCOCC2)c(=O)[nH]1)c1cccc(-c2cnn(C)c2)c1` [Example 229], the pIC50 was 6.09.

Consider `Cc1n[nH]cc1-c1cccc([C@H](C)Nc2nc(=O)n(C3CCOCC3)c(=O)[nH]2)c1` [Example 230], for which the pIC50 is 5.24.

On to `C[C@H](Nc1nc(=O)n(C2CCC(O)C2)c(=O)[nH]1)C1CCCCC1` (stereo partly shown) [Example 232], for which the pIC50 was 5.08.

On to `CC(C)C(=O)N1CCC(n2c(=O)nc(N[C@@H](C)C3CCCCC3)[nH]c2=O)CC1` [Example 234], for which the pIC50 was 5.15.

Take `C[C@H](Nc1nc(=O)n(C2CCNCC2)c(=O)[nH]1)C1CCCCC1` [Example 235]: the pIC50 is 5.78.

As to `CC(=O)N1CCC(n2c(=O)nc(N[C@@H](C)C3CCCCC3)[nH]c2=O)CC1` [Example 236], the pIC50 was 5.58.
